Reference: patent publication US20230404987A1, “METHOD OF TREATING BREAST CANCER” (Eisai R&D Management Co., Ltd., priority 2020, published 2023)
Values joined by “and” are separate entries in the source; they are usually repeats but may differ in a detail not shown here. Identical values can stand only once.

Tests used:
[1] = test system: locally advanced or metastatic ER+, HER2-negative breast cancer; assay: Phase 1/2 study of Compound 1 QD PO: antitumor efficacy (best overall response, CBR, PFS); assay type: in vivo, human; conditions: for Confirmed partial responses / Clinical benefit rate (≥23 weeks) / Stable disease (SD) rate: response-evaluable subjects; for mPFS: started on 450 mg; for Median PFS: full analysis set; for Progression free survival, median (95% CI): FIG. 4, Example 3; for Progression free survival, median (95%): FIG. 3, Example 3
Procedure: (§1) Compound 1 was tested in a first-in-human, Phase 1/2 study in women with locally advanced or metastatic ER+, HER2-negative breast cancer. In this multicenter study, women with locally advanced or metastatic ER+, HER2− breast cancer were treated with Compound 1 administered QD, PO over a 28-day cycle after progression on at least 1 hormonal therapy and at least 1 additional therapy/regimen.
(§2) The primary objective of the Phase 1 was to determine the MTD and RP2D in pretreated subjects with ER+, HER2−metastatic breast cancer. Secondary objectives included safety and antitumor activity. The primary objective of the Phase 2 was to estimate the efficacy of this agent in terms of objective response rate (ORR), clinical benefit rate (CBR), and progression-free survival (PFS). Secondary objectives included safety. The trial was designed to exclude a lower limit of ORR of 5% at one-sided level of significance of 0.05 and a power of 90%.
Over 30 months, 130 patients were enrolled; 47 in the Phase 1 part and 83 in the Phase 2 part of the trial. A total of 105 subjects, including 73 subjects on 450 mg were response-evaluable.
Experiments conducted subsequent to those reported in Example 1 were directed to identify the parameters driving the activity of Compound 1 in the trial population. Two parameters were of particular interest: 1) PgR status, and 2) ESR1 mutant type and allele frequency. PFS was used in these analyses because it is a continuous variable. […] The effect of baseline circulating ESR1, of particular ESR1 mutants and their allele frequency was unknown.
The effect of PgR positivity and the detection prior to treatment of ESR1 mutations Y537S and D538G on median PFS was then investigated using the Kaplan-Meier method. The effect of ESR1 clonality was also investigated since the presence of simultaneous clones of ESR1 mutations likely indicates very advanced or complex disease. Of note, the allele frequencies of the different ESR1 mutants were not identical, indicating the presence of multiple clones in a tumor, rather than multiple mutations in the same tumor ESR1 gene. For the purpose of these analyses, clonal Y537S was defined as ESR1 Y537S mutation detected in a pre-treatment whole blood sample at a mutant allele frequency (MAF)≥0.5% with a MAF for D538G<0.5%. Conversely, clonal D538G was defined as ESR1 D538G mutation detected in a pre-treatment whole blood sample at a MAF≥0.5% with a MAF for Y537S<0.5%.
Following data analysis described above, patients remained in the Phase 2 study reported in Example 1, and clinical data collection continued. The primary objective of this study was to estimate the efficacy of Compound 1 in terms of best overall response rate (ORR), duration of response (DoR), clinical benefit rate, and progression-free survival (PFS) in all subjects and in those with and without ERα mutation (ERαMUT).
83 patients were treated with 450 mg in the Phase 2 study of Example 1. Additionally, 11 patients who were treated with 450 mg in the Phase 1 part of the trial (also discussed in Example 1) have been grouped with these 83 Phase 2 patients for discussion in this example. […] Patients were heavily pretreated, and 85% of the patients received prior CDK4/6 inhibitors.

[2] = test system: women with locally advanced or metastatic ER+, HER2-negative breast cancer; assay: Phase 1/2 study of Compound 1 QD PO: safety (DLT, adverse events); assay type: in vivo, human
Procedure: as §1, §2
The Phase 1 part evaluated once daily doses from 100 to 600 mg. […] Consequently, the dose of 450 mg was selected as the RP2D.

[3] = test system: PDX breast cancer models, including those with mutated ESR1; conditions: multiple PDX breast cancer models; cited from earlier work
[4] = 450 mg, N = 72, response-evaluable set, Example 3
[5] = 450 mg, N = 73, response evaluable set, Example 1
[6] = 10 patients with clonal ESR1 Y537S, 450 mg, Example 3
[7] = Clonal D538G (N = 17), 450 mg, Example 3
[8] = Clonal Y537S (N = 10), 450 mg, Example 3
[9] = Clonal Y537S or Clonal D538G (N = 27), 450 mg, Example 3
[10] = Polyclonal Y537S and D538G (N = 2), 450 mg, Example 3
[11] = Y537S and D538G Negatives (N = 43), 450 mg, Example 3
[12] = all doses, N = 105, response evaluable set, Example 1

CN(C)C(=O)/C=C/CNCCOc1ccc(/C(=C(/CC(F)(F)F)c2ccccc2)c2ccc3[nH]nc(F)c3c2)cn1 [Compound 1]
Confirmed partial responses ([1]; 450 mg dose, 90% confidence limits 8.7%-23.7): 15% | Median PFS (Kaplan-Meier) ([1]; 450 mg starters with clonal ESR1 Y537S or clonal D538G mutations, Example 2): 5.5 months | Median time to response (min, max) ([1]; 450 mg, N = 72, Example 3): 2.7 (1.6, 5.5) mo | Median duration of response (min, max) ([1]; 450 mg, N = 72, Example 3, descriptive median): 7.5 (3.5, 16.6) mo | Best overall response: Complete response [1, 4]: 0 n (%) | Best overall response: Confirmed partial response [1, 4]: 12 (17) n (%) | Best overall response: Not evaluable [1, 4]: 2 (3) n (%) | Best overall response: Progressive disease [1, 4]: 27 (38) n (%) | Best overall response: Stable disease [1, 4]: 31 (43) n (%) | Clinical benefit rate (CR + PR + SD ≥ 23 weeks) [1, 4]: 29 (40) n (%) | ORR (95% confidence interval) [1, 4]: 17 (9, 27) % | Best overall response: Complete response (CR) [1, 5]: 0 N (%) | Best overall response: Confirmed partial response (PR) [1, 5]: 11 (15) N (%) | Best overall response: Not evaluable [1, 5]: 3 (4) N (%) | Best overall response: Progressive disease (PD) [1, 5]: 26 (36) N (%) | Clinical benefit rate (CR + PR + SD lasting for ≥23 weeks) [1, 5]: 24 (33) N (%) | Clinical benefit rate (≥23 weeks) ([1]; 450 mg): 33% | Stable disease (SD) rate ([1]; 450 mg): 45% | Partial responses [1, 6]: 30% | Stable disease [1, 6]: 40% | mPFS ([1]; All subjects, PgR negative, N=34): 2.1 months | mPFS ([1]; All subjects, PgR positive, N=38): 5.5 months | Clinical benefit rate [1, 7]: 6 (35) n (%) | Complete response [1, 7]: 0 n (%) | Confirmed partial response [1, 7]: 0 n (%) | Not evaluable [1, 7]: 0 n (%) | Progressive disease [1, 7]: 7 (41) n (%) | Stable disease [1, 7]: 10 (59) n (%) | Median PFS ([1]; Clonal D538G, 450 mg, Example 3): 5.4 mo | Progression free survival, median (95% CI) ([1]; Clonal D538G, N=19, 13 events): 5.4 (1.7, 7.2) months | mPFS ([1]; Clonal D538G, PgR negative, N=3): 1.7 months | mPFS ([1]; Clonal D538G, PgR positive (≥1%), N=10): 4.5 months | Clinical benefit rate [1, 8]: 6 (60) n (%) | Complete response [1, 8]: 0 n (%) | Confirmed partial response [1, 8]: 3 (30) n (%) | Not evaluable [1, 8]: 0 n (%) | Progressive disease [1, 8]: 3 (30) n (%) | Stable disease [1, 8]: 4 (40) n (%) | mPFS ([1]; Clonal Y537S + Clonal D538G (combined data), PgR negative, N=3): 1.7 months | mPFS ([1]; Clonal Y537S + Clonal D538G (combined data), PgR positive, N=16): 7.2 months | Clinical benefit rate [1, 9]: 12 (44) n (%) | Complete response [1, 9]: 0 n (%) | Confirmed partial response [1, 9]: 3 (11) n (%) | Not evaluable [1, 9]: 0 n (%) | Progressive disease [1, 9]: 10 (37) n (%) | Stable disease [1, 9]: 14 (52) n (%) | Median PFS ([1]; Clonal Y537S or Clonal D538G, 450 mg, Example 3): 5.4 mo | Median PFS ([1]; Clonal Y537S, 450 mg, Example 3): 7.3 mo | Progression free survival, median (95% CI) ([1]; Clonal Y537S, N=10, 8 events): 7.3 (0.8, 11.2) months and 7.3 months | mPFS ([1]; Clonal Y537S, PgR positive (≥1%), N=6): 13.0 months | Progression free survival, median (95%) ([1]; PgR Negative (≤1% positive cells), N=34, 20 events): 2.1 (1.7, 7.4) months | Progression free survival, median (95%) ([1]; PgR Positive (≥1% positive cells), N=38, 24 events): 5.4 (2.0, 8.8) months | Clinical benefit rate [1, 10]: 1 (50) n (%) | Complete response [1, 10]: 0 n (%) | Confirmed partial response [1, 10]: 0 n (%) | Not evaluable [1, 10]: 0 n (%) | Progressive disease [1, 10]: 1 (50) n (%) | Stable disease [1, 10]: 1 (50) n (%) | Median PFS ([1]; Polyclonal Y537S and D538G, 450 mg, Example 3): 3.5 mo | Progression free survival, median (95% CI) ([1]; Polyclonal Y537S and D538G, N=4, 3 events): 3.5 (1.7, 5.4) months | mPFS ([1]; Polyclonal, PgR positive, N=3): 2.6 months | Clinical benefit rate [1, 11]: 16 (37) n (%) | Complete response [1, 11]: 0 n (%) | Confirmed partial response [1, 11]: 9 (21) n (%) | Not evaluable [1, 11]: 2 (5) n (%) | Progressive disease [1, 11]: 16 (37) n (%) | Stable disease [1, 11]: 16 (37) n (%) | Median PFS ([1]; Y537S and D538G Negatives, 450 mg, Example 3): 3.8 mo | Progression free survival, median (95% CI) ([1]; Y537S and D538G negatives, N=61, 33 events): 3.8 (2.0, 7.3) months | mPFS ([1]; Y537S/D538G absent, PgR negative, N=31): 2.1 months | mPFS ([1]; Y537S/D538G absent, PgR positive, N=19): 3.8 months | Median progression free survival ([1]; all 94 patients treated with 450 mg, Example 3): 5.1 months | Best overall response: Complete response (CR) [1, 12]: 0 N (%) | Best overall response: Confirmed partial response (PR) [1, 12]: 13 (12) N (%) | Best overall response: Not evaluable [1, 12]: 7 (7) N (%) | Best overall response: Progressive disease (PD) [1, 12]: 37 (35) N (%) | Clinical benefit rate (CR + PR + SD lasting for ≥23 weeks) [1, 12]: 36 (34) N (%) | Clinical benefit rate (≥23 weeks) ([1]; all doses): 34% | Stable disease (SD) rate ([1]; all doses): 46% | Confirmed partial responses ([1]; all doses, 90% confidence limits 7.5%-19%): 12% | Anti-tumor activity (conclusion) ([1]; monotherapy, once daily 450 mg, heavily pretreated ER+, HER2−, metastatic breast cancer patients): demonstrated anti-tumor activity | Median PFS (Kaplan-Meier) ([1]; subjects who started at the 450 mg dose, 95% CI 3.2-6.2, Examples 1 and 2): 3.8 months | Dose-limiting toxicities (DLTs) observed ([2]; 600 mg cohort, in 2 of 7 subjects (Grade 3 fatigue and Grade 3 drug eruption)): 2 DLTs | Dose-limiting toxicities (DLTs) ([2]; Phase 1, once daily doses up to 450 mg): No dose-limiting toxicities | Grade 1 sinus bradycardia (asymptomatic) ([2]; in vivo): 35% | Grade 2 QTcF prolongation ([2]; in vivo): 2 subjects | Grade 2 sinus bradycardia (symptomatic, no intervention needed) ([2]; in vivo): 4% | Grade 3 QTcF prolongation ([2]; in vivo): 3 subjects | Treatment-related deaths ([2]; in vivo): no treatment-related deaths | RP2D (recommended phase 2 dose) ([2]; once daily, PO): 450 mg | Grade 4 AE ([2]; serum bilirubin, urinary tract obstruction, hyponatremia, all considered related to disease progression): Three | Grade 2 or higher adverse event: AST increase ([2]; subjects, all doses): 11% | Grade 2 or higher adverse event: anemia ([2]; subjects, all doses): 20% | Grade 2 or higher adverse event: diarrhea ([2]; subjects, all doses): 11% | Grade 2 or higher adverse event: fatigue ([2]; subjects, all doses): 16% | Grade 2 or higher adverse event: nausea ([2]; subjects, all doses): 14% | Antitumor activity [3]: significant antitumor activity
